“Also recorded” adds a separate entry of the source. Residues, ends and D or L forms follow the SMILES beside them.
Key:
osteoblast MC3TC-E1 = assay: Safety in osteoblasts; type: cell-based, Mouse; details: 0.1 μM, 1 μM, 10 μM and 100 μM
Experimental: The safety of the present peptides was determined using osteoblast MC3TC-E1. Osteoblasts were treated with A7-1 peptide as prepared in Example 1 at the concentration of 0.1 μM, 1 μM, 10 μM and 100 μM. Then the effect of the present peptide on the proliferation (FIG. 8A), viability (FIG. 8B) and differentiation (FIG. 8C) on the cells was examined. For testing the effect on the […], MC3T3-E1 and C2C12 cell lines were treated with BMP (rhBMP2, 10 ng/ml for 3 days) and differentiation medium for bone formation for 6 days to induce differentiation. The results were examined by cell staining. It is observed that the present peptide has no effect on the proliferation rate, viability rate or whether or not the cells are differentiated.

[1] = test system: anchorage dependent cells MC3T3-E1; assay: Comparative experiment with soluble RGDS, CCK-8; type: cell-based, Mouse; details: RGDS 0, 10, 100 and 1000 μM
Experimental: The present peptide A7-1(10 μM) or A7-1 together with soluble RGDS peptide (0, 10, 100 and 1000 μM) for competition assay were added to anchorage dependent cells MC3T3-E1 in a test tube and incubated for 10 min. Then the cells were transferred to a culture plate and incubated for 10 min in a thermostatic incubator to allow the cells to attach. After 10 min, the medium was removed and the cells were washed 2 times with PBS to remove any unattached cells and a fresh medium without the peptide and CCK-8 (Dojindo) were added to the cells and incubated for 1 hr in a thermostatic incubator. Then the absorbance was measured at 450 nm. The medium mixed with CCK-8 only was used as a blank.

Molecule	effect on differentiation (osteoblast MC3TC-E1)	effect on proliferation rate (osteoblast MC3TC-E1)	effect on viability rate (osteoblast MC3TC-E1)	cell adhesiveness with RGDS in the absence of A7-1 [1]
CC(C)C[C@H](NC(=O)[C@H](CCC(N)=O)NC(=O)[C@@H](N)CCCNC(=N)N)C(=O)N[C@H](C(=O)N[C@H](C(=O)N[C@@H](CCCCN)C(=O)N[C@@H](Cc1ccccc1)C(=O)N[C@@H](CCCNC(=N)N)C(=O)N[C@@H](C)C(=O)N[C@@H](CC(C)C)C(=O)N1CCC[C@H]1C(=O)N[C@@H](CS)C(=O)O)C(C)C)C(C)C [A7-1, RQLVVKFRALPC] (H-RQLVVKFRALPC-OH)	no effect	no effect	no effect	
RGDS				decreased in a concentration dependent manner; also recorded: significantly reduces the adhesiveness
